EP0017102A1, “Composition containing a phenyl benzoic acid compound and acetaminophen combination for the treatment of pain and inflammation and process for preparing the same” (Merck & Co., Inc., priority 1979, dated 1980)
Where “and” joins values, the source holds several entries; their conditions need not be identical. Equal values may be shown once.

Experiments:
[1] = tested on: adjuvant arthritis induced in rats; assay: adjuvant arthritis analgesic bioassay (tail pinch / foot bend squeak response); type: in vivo, Sprague-Dawley rats
From the text: Since analgesic tests using intact animals are not sensitive enough to detect the analgesic activity of nonsteroidal anti-inflammatory compounds, the analgesic bioassay employed utilized inflammatory sensitization procedures, specifically adjuvant arthritis. Adjuvant arthritis induced in rats, the animals used in the bioassay, resembles rheumatoid arthritis in man with respect to the manifestation of inflammation and hyperalgesia. When the affected joints of rats with adjuvant arthritis are subjected to a gentle manipulation, preferably by extending the joint, the rats respond by squeaking, which is a definite and reproducible sign of algesia. The ability of the tested compounds to suppress this squeaking response was an accurate measure of the analgesic activity of the tested compounds.
In accordance with the adjuvant arthritis bioassay used to evaluate the analgesic activity of the combinations of compounds of the present invention, young adult Sprague-Dawley rats of either sex are rendered hyperalgesic by injection of dessicated Mycobacterium- butyricum suspended in light mineral oil (Freund's adjuvant). The mycobacteria are ground in a mortar, suspended in the oil, and sterilized in an autoclave. Each animal receives 0.5 mg of the bacteria in 0.1 ml of oil, injected subcutaneously through a 21-gauge needle into the distal third of the tail.
The animals can subsequently be used in two ways for testing the analgesic action of drugs. The day after the injection of adjuvant, the tail is found to be sensitive to touch. Approximately 16 hours after the injection, the experimenter tests the animals for the presence of hyperalgesia. This is done by holding the animal in one hand. With the thumb and forefinger of the other hand, the observer applies gentle pressure to the tail about 2.5 cm proximal to the point where the needle has been inserted. This gentle pressure is repeated at 5-sec intervals. If the rat endures five such gentle presses without emitting more than one "squeak", analgesia is considered to be present and a score of + is assigned. Two or more squeaks earns a rating of 0, or no analgesia. Before being assigned to an experiment, animals are screened and only those with the 0 rating are used.
The hyperalgesic animals are assigned randomly to drug treatments and one of the treatments is always the vehicle without the drug (placebo group). […] […] This entire procedure may be referred to as "tail pinch" .technique. Alternatively, an apparatus for applying pressure to the tail may be employed and the "squeak threshold" determined before and after drug.
The adjuvant-injected animals, if left undisturbed, develop severe arthritis which becomes especially manifest in about two weeks. […] This "foot bend" technique yields drug responses essentially identical with those obtained by the "tail pinch" procedure.
For a further description of this bioassay and its significance, reference is made to Kuzuma and Kawai, "Evaluation of Analgesic Agents in Rats with Adjuvant Arthritis", Chem. Pharm. Bull., 23 (6) 1184-1191 (1975).

in vivo = type: in vivo, mice; details: mouse, in vivo, po
Protocol: (§1) Measurements of the relative safety of the components and of the combination were carried out using acute oral toxicity studies in female mice. Randomly selected female albino mice (Carworth CF-1) weighing from 18 to 24 grams, and 6 to 7 weeks old, were used. The LD50 value for each drug was estimated from acute oral dose-response curves previously established. The following dose regimen was utilized:
(§2) The preparations were administered by gastric intubation using a metal catheter attached to a springe. The various doses were administered randomly with 20 mice per group. Food was withheld one to two hours before and three hours following drug treatment. Water was available at all times. […] Body weights were taken pretest and on days 7 and 14.

[2] = tested on: female albino mice (Carworth CF-1); assay: in vivo; type: in vivo; details: Group V: Acetaminophen 1500 mg./kg. (100 %LD50) alone; oral; 20 tested; 14 days
Protocol: as §1, §2

[3] = tested on: adjuvant arthritis induced in rats; details: compounds known to be clinically active; cited from earlier work

CC(=O)Nc1ccc(O)cc1 [APAP, acetaminophen]
Number of Rats with Analgesia ([1]; 1/2 h after administration, dose 200 mg./kg., 8 rats per dose): 2
Percent of Rats with Analgesia APAP Alone ([1]; 1 Hrs. after drug, APAP 25 mg./kg., 10 rats per dose): 10%
Percent of Rats with Analgesia APAP Alone ([1]; 1 Hrs. after drug, APAP 200 mg./kg., 8 rats per dose): 25% and 37.5%
Percent of Rats with Analgesia APAP Alone ([1]; 2 Hrs. after drug, APAP 50 mg./kg., 10 rats per dose): 0%
Percent of Rats with Analgesia APAP Alone ([1]; 3 Hrs. after drug, APAP 100 mg./kg., 8 rats per dose): 0%
Percent of Rats with Analgesia APAP Alone ([1]; 3 Hrs. after drug, APAP 100 mg./kg., 10 rats per dose): 0%
Percent of Rats with Analgesia APAP Alone ([1]; 4 Hrs. after drug, APAP 25 mg./kg., 10 rats per dose): 0%
Percent of Rats with Analgesia APAP Alone ([1]; 4 Hrs. after drug, APAP 50 mg./kg., 10 rats per dose): 0%
Percent of Rats with Analgesia APAP Alone ([1]; 4 Hrs. after drug, APAP 100 mg./kg., 8 rats per dose): 0%
Percent of Rats with Analgesia APAP Alone ([1]; 4 Hrs. after drug, APAP 100 mg./kg., 10 rats per dose): 0%
Percent of Rats with Analgesia APAP Alone ([1]; 5 Hrs. after drug, APAP 100 mg./kg., 8 rats per dose): 0%
Percent of Rats with Analgesia APAP Alone ([1]; 5 Hrs. after drug, APAP 200 mg./kg., 8 rats per dose): 25%
Number of Rats with Analgesia ([1]; 1 h after administration, dose 25 mg./kg., 10 rats per dose): 1
Number of Rats with Analgesia ([1]; 1 h after administration, dose 50 mg./kg., 10 rats per dose): 1
Number of Rats with Analgesia ([1]; 1 h after administration, dose 100 mg./kg., 10 rats per dose): 3
Number of Rats with Analgesia ([1]; 1 h after administration, dose 200 mg./kg., 8 rats per dose): 2 and 3
Number of Rats with Analgesia ([1]; 1 h after administration, dose 400 mg./kg., 8 rats per dose): 6 and 4
Number of Rats with Analgesia ([1]; 2 h after administration, dose 25 mg./kg., 10 rats per dose): 0
Number of Rats with Analgesia ([1]; 2 h after administration, dose 50 mg./kg., 10 rats per dose): 0
Number of Rats with Analgesia ([1]; 2 h after administration, dose 100 mg./kg., 8 rats per dose): 1
Number of Rats with Analgesia ([1]; 2 h after administration, dose 100 mg./kg., 10 rats per dose): 2
Number of Rats with Analgesia ([1]; 2 h after administration, dose 200 mg./kg., 8 rats per dose): 4 and 3
Number of Rats with Analgesia ([1]; 2 h after administration, dose 400 mg./kg., 8 rats per dose): 7
Number of Rats with Analgesia ([1]; 3 h after administration, dose 25 mg./kg., 10 rats per dose): 0
Number of Rats with Analgesia ([1]; 3 h after administration, dose 50 mg./kg., 10 rats per dose): 0
Number of Rats with Analgesia ([1]; 3 h after administration, dose 100 mg./kg., 10 rats per dose): 0
Number of Rats with Analgesia ([1]; 3 h after administration, dose 200 mg./kg., 8 rats per dose): 4
Number of Rats with Analgesia ([1]; 3 h after administration, dose 400 mg./kg., 8 rats per dose): 6
Number of Rats with Analgesia ([1]; 4 h after administration, dose 25 mg./kg., 10 rats per dose): 0
Number of Rats with Analgesia ([1]; 4 h after administration, dose 50 mg./kg., 10 rats per dose): 0
Number of Rats with Analgesia ([1]; 4 h after administration, dose 100 mg./kg., 8 rats per dose): 0
Number of Rats with Analgesia ([1]; 4 h after administration, dose 100 mg./kg., 10 rats per dose): 0
Number of Rats with Analgesia ([1]; 4 h after administration, dose 200 mg./kg., 8 rats per dose): 4
Number of Rats with Analgesia ([1]; 4 h after administration, dose 400 mg./kg., 8 rats per dose): 5 and 4
Number of Rats with Analgesia ([1]; 5 h after administration, dose 25 mg./kg., 10 rats per dose): 0
Number of Rats with Analgesia ([1]; 5 h after administration, dose 50 mg./kg., 10 rats per dose): 0
Number of Rats with Analgesia ([1]; 5 h after administration, dose 100 mg./kg., 8 rats per dose): 0
Number of Rats with Analgesia ([1]; 5 h after administration, dose 100 mg./kg., 10 rats per dose): 0
Number of Rats with Analgesia ([1]; 5 h after administration, dose 200 mg./kg., 8 rats per dose): 2 and 1
Number of Rats with Analgesia ([1]; 5 h after administration, dose 400 mg./kg., 8 rats per dose): 2 and 3
Number of Rats with Analgesia ([1]; 6 h after administration, dose 25 mg./kg., 10 rats per dose): 0
Number of Rats with Analgesia ([1]; 6 h after administration, dose 50 mg./kg., 10 rats per dose): 0
Number of Rats with Analgesia ([1]; 6 h after administration, dose 100 mg./kg., 8 rats per dose): 0
Number of Rats with Analgesia ([1]; 6 h after administration, dose 100 mg./kg., 10 rats per dose): 0
Number of Rats with Analgesia ([1]; 6 h after administration, dose 400 mg./kg., 8 rats per dose): 1
Total Positives ([1]; sum over 1/2, 1 and 2 h, dose 200 mg./kg., 8 rats per dose): 7
Total Positives ([1]; sum over 1 and 2 h, dose 100 mg./kg., 10 rats per dose): 5
LD50 (in vivo): 1500 mg/kg
No. Dead [2]: 16

CC(=O)Oc1ccccc1C(=O)O [aspirin]
results in the adjuvant arthritis analgesic bioassay [3]: positive, dose-dependent, reproducible results

CC(C)Cc1ccc(CC(=O)O)cc1 [ibufenac]
results in the adjuvant arthritis analgesic bioassay [3]: positive, dose-dependent, reproducible results

COc1ccc2c(c1)c(CC(=O)O)c(C)n2C(=O)c1ccc(Cl)cc1 [indomethacin]
results in the adjuvant arthritis analgesic bioassay [3]: positive, dose-dependent, reproducible results
